Reference: patent EP4737445A1, “NOVEL SATURATED HETEROCYCLE-SUBSTITUTED HETEROARYL-CARBONOHYDRAZONOYL DICYANIDE COMPOUND AND USE THEREOF” (Korea Institute of Science and Technology, priority 2023, dated 2025)
Where two headings read alike, the source gives them in different places.

Assays:
Format in all cases: cell-based
[1] = test system: Tau-BiFC cells; test: Cell viability (stained nuclei count) in Tau-BiFC cells
Method: (§1) To screen for new tau aggregation inhibitors, a Tau-BiFC cell model that facilitates observation of tau oligomer formation in living cells was used. Tau-BiFC cells were dispensed into a 384-well plate, and the next day, the compounds prepared according to Examples 1 to 46 were treated at concentrations of 1, 3, and 10 µM, respectively, together with Forskolin (treatment concentration 30 µM), which is a compound that induces tau aggregation by activating the tau phosphorylation enzyme PKA. After 48 hours, nuclei within cells were stained using Hoechst (treatment concentration 2 µg/mL), and BiFC fluorescence intensity was automatically quantified using Operetta (Perkin Elmer) to count the stained nuclei in each well from the entire plate. The group treated only with Forskolin, which induces tau aggregation, was set as the reference point with 100% tau aggregation state, and the effect was confirmed by the formula "BiFC fluorescence intensity by the compounds synthesized according to the Examples of the disclosure/(fluorescence intensity of the control group treated only with Forskolin that induces tau aggregation - fluorescence intensity of the untreated control group) × 100". In addition, the degree of cytotoxicity induced by the newly synthesized compounds was also calculated using the formula "(number of stained nuclei in the compound-treated group/number of stained nuclei in the Forskolin-treated group) × 100", with the group treated only with Forskolin as the reference point at 100% viability. From the treatment results, substances that inhibit intracellular tau aggregation were identified through screening from a series of candidates based on the criteria of 70% or more tau aggregation inhibition and 100% cell viability at a compound treatment concentration of 10 µM.
(§2) To confirm the tau aggregation inhibitory effect according to the concentration of the compounds screened in Experimental Example 1, the screened compounds were treated to Tau-BiFC cells at concentrations of 0.03, 0.1, 0.3, 1, 3, 10, and 30 µM, respectively, together with Forskolin (treatment concentration 30 µM), which is a tau aggregation-inducing substance. After 48 hours, cell images were examined to analyze the tau aggregation reaction and degree of cytotoxicity. The IC50 and toxicity of the compounds were analyzed by nonlinear regression analysis using Prism software (GraphPad). The calculated results for representative compounds are shown in Table 3 below: Tau aggregation inhibitory effect and cell viability of novel compounds.

[2] = target: T1, Tau (Homo sapiens, UniProt P10636); test: Tau aggregation inhibition in Tau-BiFC cell model (Forskolin-induced)
T1 construct: BiFC fluorescent-protein fragments (two complementary halves on two tau copies); expressed in transfected cells
Method: as §1, §2

[3] = test system: TDP-43 BiFC cells; test: Cell viability (stained nuclei count) in TDP-43-BiFC cells; details: Forskolin-only group = 100%
Method: (§3) To screen for new TDP-43 aggregation inhibitors, a TDP-43-BiFC cell model that facilitates observation of TDP-43 aggregate formation in living cells was used. Specifically, TDP-43-BiFC cells were dispensed into a 384-well plate, and the next day, the compounds prepared according to Examples 1 to 46 were treated at concentrations of 3 and 10 µM, respectively, together with Forskolin (treatment concentration 30 µM), which is a compound that induces TDP-43 aggregation by activating the phosphorylation enzyme PKA. After 48 hours, nuclei within cells were stained using Hoechst (treatment concentration 1 µg/mL), and BiFC fluorescence intensity was automatically quantified using Operetta (PerkinElmer) to count the stained nuclei in each well from the entire plate. The group treated only with Forskolin, which induces TDP-43 aggregation, was set as the reference point with 100% TDP-43 aggregation state, and the effect was confirmed by the formula "(BiFC fluorescence intensity by the compounds synthesized according to the Examples of the disclosure - fluorescence intensity of the untreated control group)/(fluorescence intensity of the control group treated only with Forskolin that induces TDP-43 aggregation - fluorescence intensity of the untreated control group) × 100". In addition, the degree of cytotoxicity induced by the newly synthesized compounds was also calculated using the formula "(number of stained nuclei in the compound-treated group/number of stained nuclei in the Forskolin-treated group) × 100", with the group treated only with Forskolin as the reference point at 100% viability. From the treatment results, substances that inhibit intracellular TDP-43 aggregation were identified through screening from a series of candidates based on the criteria of 80% or more TDP-43 aggregation inhibition and 60% cell viability at a compound treatment concentration of 3 µM.
(§4) Furthermore, to confirm the TDP-43 aggregation inhibitory effect according to the concentration of the compounds screened in Experimental Example 3, the screened compounds were treated to […] at concentrations of 0.003, 0.01, 0.03, 0.1, 0.3, 1, 3, and 10 µM, respectively, together with Forskolin (treatment concentration 30 µM), which is a TDP-43 aggregation-inducing substance. After 48 hours, cell images were examined to analyze the TDP-43 aggregation reaction and degree of cytotoxicity. The IC50 and toxicity of the compounds were analyzed by nonlinear regression analysis using Prism software (GraphPad). The calculated results for representative compounds are shown in Table 4 below: TDP-43 protein aggregation inhibitory effect and cell viability of novel compounds.

[4] = target: T2, TDP-43 protein (Homo sapiens, UniProt Q13148); test: TDP-43 aggregation inhibition in TDP-43-BiFC cell model (Forskolin-induced); details: for inhibition at 3 µM: read-out: TDP-43 protein aggregation inhibitory effect: Aggregation inhibitory effect (%) (@3 uM)
T2 construct: BiFC fluorescent-protein fragments (two complementary halves); expressed in transfected cells
Method: as §3, §4

[5] = @10 µM, Tau-BiFC cell line, Forskolin-only group = 100%
[6] = Tau-BiFC cell line, Forskolin 30 µM, 48 hours, 0.03-30 µM, read-out: Tau aggregation inhibitory effect IC50
[7] = @3 uM, TDP-43 BiFC cells, Forskolin 30 µM, 48 hours

T1 sequence (P10636 1-441 isoform P10636-8): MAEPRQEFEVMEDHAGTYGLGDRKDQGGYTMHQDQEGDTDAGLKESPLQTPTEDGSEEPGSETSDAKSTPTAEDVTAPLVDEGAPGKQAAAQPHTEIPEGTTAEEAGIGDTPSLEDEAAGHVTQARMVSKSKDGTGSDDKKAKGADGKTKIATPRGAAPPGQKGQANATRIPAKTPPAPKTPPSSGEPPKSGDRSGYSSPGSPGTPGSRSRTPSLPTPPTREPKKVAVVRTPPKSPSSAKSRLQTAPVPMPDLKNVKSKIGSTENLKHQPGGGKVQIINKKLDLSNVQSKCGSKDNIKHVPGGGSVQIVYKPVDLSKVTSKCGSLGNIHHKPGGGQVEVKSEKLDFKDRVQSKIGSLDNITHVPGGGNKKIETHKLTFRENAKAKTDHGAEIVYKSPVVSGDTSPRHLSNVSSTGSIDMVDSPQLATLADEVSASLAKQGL
T2 sequence (Q13148 whole entry, the tested form may be a part): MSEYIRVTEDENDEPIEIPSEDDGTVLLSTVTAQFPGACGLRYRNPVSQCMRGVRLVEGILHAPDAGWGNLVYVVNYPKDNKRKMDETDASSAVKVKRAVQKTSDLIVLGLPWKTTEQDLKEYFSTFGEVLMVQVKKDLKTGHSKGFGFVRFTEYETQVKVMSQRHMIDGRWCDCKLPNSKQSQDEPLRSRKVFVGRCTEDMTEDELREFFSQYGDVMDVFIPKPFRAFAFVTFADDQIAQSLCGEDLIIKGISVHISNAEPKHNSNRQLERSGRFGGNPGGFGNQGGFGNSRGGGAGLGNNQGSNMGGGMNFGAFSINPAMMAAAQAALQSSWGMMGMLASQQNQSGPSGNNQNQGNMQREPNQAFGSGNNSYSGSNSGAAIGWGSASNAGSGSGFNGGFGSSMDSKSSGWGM

**Q.** `N#CC(C#N)=NNc1ccc2nc(-c3ccccc3)sc2c1` [Comparative compound 2, N-(2-phenylbenzo[d]thiazol-6-yl) carbonohydrazonoyl dicyanide, reference compound] was tested. Which “Cell viability (% @10µM)” value [1, 5] did it give?
**A.** 65%

**Q.** What about the IC50 [2] of the same molecule?
**A.** 2800 nM

**Q.** How did the “Cell viability (% @10µM)” value [1, 5] turn out when `N#CC(C#N)=NNc1ccc2nc(-c3ccc(F)cc3)sc2c1` [Comparative compound 3, N-(2-(4-fluorophenyl)benzo[d]thiazol-6-yl) carbonohydrazonoyl dicyanide, reference compound] was run?
**A.** 50%

**Q.** And the IC50 [2]?
**A.** 3200 nM

**Q.** Which results are given for `CN(C)c1ccc(-c2nc3ccc(NN=C(C#N)C#N)cc3s2)cc1` [Comparative compound 4, N-(2-(4-(dimethylamino)phenyl)benzo[d]thiazol-6-yl) carbonohydrazonoyl dicyanide, reference compound]?
**A.** Cell viability (% @10µM) [1, 5]: 80%; IC50 [2, 6]: 3100 nM

**Q.** What does the source list for `N#CC(C#N)=NNc1ccc2nc(-c3cccs3)sc2c1` [Comparative compound 5, N-(2-(thiophen-2-yl)benzo[d]thiazol-6-yl) carbonohydrazonoyl dicyanide, reference compound]?
**A.** Cell viability (% @10µM) [1, 5]: 70%; IC50 [2]: 7300 nM

**Q.** Which “Cell viability (%) (@ 3 uM)” value [3] does the source give for `N#CC(C#N)=NNc1cc2oc(N3CCOCC3)nc2cc1Cl` [Compound 19, (5-chloro-2-morpholinobenzo[d]oxazol-6-yl)carbonohydrazonoyl dicyanide] here?
**A.** 97.0%

**Q.** What about the inhibition at 3 µM [4] of the same molecule?
**A.** 92.6%

**Q.** And the “Cell viability (% @10µM)” value [1, 5]?
**A.** 100%

**Q.** And the IC50 [2]?
**A.** 453 nM

**Q.** What does the source list for `CC(C)(C)OC(=O)N1CCN(c2nc3ccc(NN=C(C#N)C#N)cc3s2)CC1` [Compound 22, tert-butyl 4-(6-(2-(dicyanomethylene)hydrazinyl)benzo[d]thiazol-2-yl)piperazine-1-carboxylate]?
**A.** Cell viability (%) (@ 3 uM) [3]: 130.7%; inhibition at 3 µM [4, 7]: 66.5%

**Q.** Which “Cell viability (%) (@ 3 uM)” value [3] does the source give for `C[C@@H]1CN(c2nc3ccc(NN=C(C#N)C#N)cc3s2)C[C@H](C)N1C(=O)OC(C)(C)C` [Compound 29, (2R,6S)-tert-butyl 4-(6-(2-(dicyanomethylene)hydrazinyl)benzo[d]thiazol-2-yl)-2,6-dimethylpiperazine-1-carboxylate] here?
**A.** 96.2%

**Q.** And the inhibition at 3 µM [4, 7]?
**A.** 47.2%

**Q.** What about the “Cell viability (% @10µM)” value ([1]; 48 h, 10 µM) of the same molecule?
**A.** 97%

**Q.** What about the IC50 [2, 6] of the same molecule?
**A.** 36 nM

**Q.** For `CN(N=C(C#N)C#N)c1ccc2nc(N3C4CCC3COC4)sc2c1` [Compound 36, (2-(3-oxa-8-azabicyclo[3.2.1]octan-8-yl)benzo[d]thiazol-6-yl)(methyl)carbonohydrazonoyl dicyanide], which “Cell viability (% @10µM)” value [1, 5] is on record?
**A.** 97%

**Q.** What about the IC50 [2] of the same molecule?
**A.** 136 nM

**Q.** Which results are given for `CC(=O)N(N=C(C#N)C#N)c1ccc2nc(N3CCOCC3)sc2c1` [Compound 37, acetyl(2-morpholinobenzo[d]thiazol-6-yl)carbonohydrazonoyl dicyanide]?
**A.** Cell viability (%) (@ 3 uM) [3]: 61.3%; IC50 [4]: 0.7 nM; inhibition at 3 µM [4]: 91.2%; Cell viability (% @10µM) [1, 5]: 85%; IC50 [2]: 24 nM

**Q.** Which “Cell viability (%) (@ 3 uM)” value [3] does the source give for `N#CC(C#N)=NNc1ccc2nc(N3CCC[C@H](F)C3)oc2c1` [Compound 42, (S)-(2-(3-fluoropiperidin-1-yl)benzo[d]oxazol-6-yl)carbonohydrazonoyl dicyanide] here?
**A.** 62.4%

**Q.** And the inhibition at 3 µM [4]?
**A.** 64.7%

**Q.** And the “Cell viability (% @10µM)” value [1, 5]?
**A.** 100%

**Q.** And the IC50 [2]?
**A.** 20 nM

**Q.** How did the “Cell viability (%) (@ 3 uM)” value [3] turn out when `N#CC(C#N)=NNc1ccc2nc(N3CC[C@H](F)C3)oc2c1` [Compound 43, (S)-(2-(3-fluoropyrrolidin-1-yl)benzo[d]oxazol-6-yl)carbonohydrazonoyl dicyanide] was run?
**A.** 89.0%

**Q.** What about the inhibition at 3 µM [4] of the same molecule?
**A.** 92.9%

**Q.** What about the “Cell viability (% @10µM)” value [1, 5] of the same molecule?
**A.** 100%

**Q.** And the IC50 ([2]; read-out: Tau aggregation inhibitory effect IC50, Tau-BiFC cell line, Forskolin 30 µM, 48 hours, 0.03-30 µM)?
**A.** 28 nM

**Q.** What does the source list for `N#CC(C#N)=NNc1ccc2nc(N3CCCC(F)C3)oc2c1` (stereo not shown) [Compound 44, (2-(3-fluoropiperidin-1-yl)benzo[d]oxazol-6-yl)carbonohydrazonoyl dicyanide]?
**A.** Cell viability (%) (@ 3 uM) [3]: 85.0%; inhibition at 3 µM [4]: 71.1%; Cell viability (% @10µM) [1, 5]: 100%; IC50 [2]: 12 nM

**Q.** `N#CC(C#N)=NNc1ccc2nc(N3CCCC3)oc2c1` [Compound 45, (2-(pyrrolidin-1-yl)benzo[d]oxazol-6-yl)carbonohydrazonoyl dicyanide] was tested. Which “Cell viability (%) (@ 3 uM)” value [3] did it give?
**A.** 73.6%

**Q.** And the IC50 [4]?
**A.** 371 nM

**Q.** And the inhibition at 3 µM [4]?
**A.** 81.1%

**Q.** And the “Cell viability (% @10µM)” value [1, 5]?
**A.** 98%

**Q.** What about the IC50 [2] of the same molecule?
**A.** 4 nM

**Q.** For `N#CC(C#N)=NNc1ccc2nc(N3CCCCC3)oc2c1` [Compound 46, (2-(piperidin-1-yl)benzo[d]oxazol-6-yl)carbonohydrazonoyl dicyanide], which “Cell viability (%) (@ 3 uM)” value [3] is on record?
**A.** 73.6%

**Q.** And the IC50 [4]?
**A.** 320 nM

**Q.** And the inhibition at 3 µM [4]?
**A.** 81.4%

**Q.** What about the “Cell viability (% @10µM)” value [1, 5] of the same molecule?
**A.** 100%

**Q.** And the IC50 [2]?
**A.** 16 nM

**Q.** What does the source list for `N#CC(C#N)=NNc1ccc2nc(N3CCC[C@@H](F)C3)oc2c1` [Compound 47, (R)-N-(2-(3-fluoropiperidin-1-yl)benzo[d]oxazol-6-yl)carbonohydrazonoyl dicyanide]?
**A.** Cell viability (% @10µM) [1, 5]: 100%; IC50 [2]: 117 nM
